Laboratory results from PubChem BioAssay AID2060912 (Molecular Pharmacology Branch, DTP, NCI, 2025).

Test system: HUVEC/MSC spheroids viability
Assay: Human HUVEC/MSC cell line growth inhibition [KRAS2];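 on viability, T/C: percent of DMSO vehicle control luminescence so 100% = untreated viability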
Conditions: for IC50: curve of first compound; for viability, T/C: stronger effect = lower value
How it was run: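 Stroma-only multicellular spheroids, formed from HUVEC and human MSCs at passages </=5, received RAS-pathway inhibitors with or without a second targeted drug. Dosing followed half-log dilutions from clinically achievable levels.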

[1] = second compound 0.0316 µM, first compound 0.0316 µM
[2] = second compound 0.0316 µM, first compound 0.1 µM
[3] = second compound 0.1 µM, first compound 0.0316 µM
[4] = second compound 0.1 µM, first compound 0.1 µM
[5] = second compound 0.316 µM, first compound 0.0316 µM
[6] = second compound 0.316 µM, first compound 0.1 µM
[7] = second compound 1 µM, first compound 0.0316 µM
[8] = second compound 1 µM, first compound 0.1 µM
[9] = second compound 3.16 µM, first compound 0.0316 µM
[10] = second compound 3.16 µM, first compound 0.1 µM
[11] = second compound 10 µM, first compound 0.0316 µM
[12] = second compound 10 µM, first compound 0.1 µM
[13] = second compound 0.0316 µM, first compound 0.316 µM
[14] = second compound 0.0316 µM, first compound 1 µM
[15] = second compound 0.0316 µM, first compound 3.16 µM
[16] = second compound 0.0316 µM, first compound 10 µM
[17] = second compound 0.1 µM, first compound 0.316 µM
[18] = second compound 0.1 µM, first compound 1 µM
[19] = second compound 0.1 µM, first compound 3.16 µM
[20] = second compound 0.1 µM, first compound 10 µM
[21] = second compound 0.316 µM, first compound 0.316 µM
[22] = second compound 0.316 µM, first compound 1 µM
[23] = second compound 0.316 µM, first compound 3.16 µM
[24] = second compound 0.316 µM, first compound 10 µM
[25] = second compound 1 µM, first compound 0.316 µM
[26] = second compound 1 µM, first compound 1 µM
[27] = second compound 1 µM, first compound 3.16 µM
[28] = second compound 1 µM, first compound 10 µM
[29] = second compound 3.16 µM, first compound 0.316 µM
[30] = second compound 3.16 µM, first compound 1 µM
[31] = second compound 3.16 µM, first compound 3.16 µM
[32] = second compound 3.16 µM, first compound 10 µM
[33] = second compound 10 µM, first compound 0.316 µM
[34] = second compound 10 µM, first compound 1 µM
[35] = second compound 10 µM, first compound 3.16 µM
[36] = second compound 10 µM, first compound 10 µM

Work on `CN(C)C/C=C/C(=O)Nc1cc2c(Nc3ccc(F)c(Cl)c3)ncnc2cc1O[C@H]1CCOC1` + CNCc1ccccc1-c1csc(C(C)Nc2nc(C)nc3cc(OC)c(OC)cc23)c1 yielded an IC50 (second compound 0.0316 µM) greater than 0.1 µM, an IC50 (second compound 0.1 µM) greater than 0.1 µM and an IC50 (second compound 0.316 µM) greater than 0.1 µM. It also gave an IC50 (second compound 1 µM) greater than 0.1 µM, an IC50 (second compound 3.16 µM) greater than 0.1 µM and an IC50 (second compound 10 µM) of less than 0.000316 µM. The viability, T/C (second compound 0.0316 µM, first compound 0.000316 µM) was 100%, the viability, T/C (second compound 0.0316 µM, first compound 0.001 µM) was 89.5% and the viability, T/C (second compound 0.0316 µM, first compound 0.00316 µM) was 90.5%. The viability, T/C (second compound 0.0316 µM, first compound 0.01 µM) was 91.2%, the viability, T/C [1] was 74% and the viability, T/C [2] was 86%. For the same compound, the viability, T/C (second compound 0.1 µM, first compound 0.000316 µM) was 89.7%, the viability, T/C (second compound 0.1 µM, first compound 0.001 µM) was 105% and the viability, T/C (second compound 0.1 µM, first compound 0.00316 µM) was 77.4%. It also gave a viability, T/C (second compound 0.1 µM, first compound 0.01 µM) of 76.7%, a viability, T/C [3] of 89.5% and a viability, T/C [4] of 74.8%. For the same compound, the viability, T/C (second compound 0.316 µM, first compound 0.000316 µM) was 85.2%, the viability, T/C (second compound 0.316 µM, first compound 0.001 µM) was 93.2% and the viability, T/C (second compound 0.316 µM, first compound 0.00316 µM) was 72.5%. The viability, T/C (second compound 0.316 µM, first compound 0.01 µM) was 78.1%, the viability, T/C [5] was 96.6% and the viability, T/C [6] was 68.8%. The viability, T/C (second compound 1 µM, first compound 0.000316 µM) was 78.3%, the viability, T/C (second compound 1 µM, first compound 0.001 µM) was 73.7% and the viability, T/C (second compound 1 µM, first compound 0.00316 µM) was 86.5%. The viability, T/C (second compound 1 µM, first compound 0.01 µM) was 73.5%, the viability, T/C [7] was 72.7% and the viability, T/C [8] was 59.8%. It also gave a viability, T/C (second compound 3.16 µM, first compound 0.000316 µM) of 89.2%, a viability, T/C (second compound 3.16 µM, first compound 0.001 µM) of 94.4% and a viability, T/C (second compound 3.16 µM, first compound 0.00316 µM) of 80.4%. The viability, T/C (second compound 3.16 µM, first compound 0.01 µM) was 89.5%, the viability, T/C [9] was 65.2% and the viability, T/C [10] was 84.4%. The viability, T/C (second compound 10 µM, first compound 0.000316 µM) was 0.33%, the viability, T/C (second compound 10 µM, first compound 0.001 µM) was 0.35% and the viability, T/C (second compound 10 µM, first compound 0.00316 µM) was 0.37%. The viability, T/C (second compound 10 µM, first compound 0.01 µM) was 0.33%, the viability, T/C [11] was 0.37% and the viability, T/C [12] was 0.65%.

With `COC(=O)c1ccc2c(C(=Nc3ccc(N(C)C(=O)CN4CCN(C)CC4)cc3)c3ccccc3)c(O)[nH]c2c1` + CNCc1ccccc1-c1csc(C(C)Nc2nc(C)nc3cc(OC)c(OC)cc23)c1 the IC50 (second compound 0.0316 µM) was 1.55 µM, the IC50 (second compound 0.1 µM) was 1.47 µM and the IC50 (second compound 0.316 µM) was 1.42 µM. The IC50 (second compound 1 µM) was 1.19 µM, the IC50 (second compound 3.16 µM) was 0.988 µM and the IC50 (second compound 10 µM) was less than 0.0316 µM. It also gave a viability, T/C [1] of 77%, a viability, T/C [2] of 117% and a viability, T/C [13] of 76.5%. For the same compound, the viability, T/C [14] was 53.4%, the viability, T/C [15] was 37.9% and the viability, T/C [16] was 0.32%. The viability, T/C [3] was 76.7%, the viability, T/C [4] was 103% and the viability, T/C [17] was 87.3%. For the same compound, the viability, T/C [18] was 48.4%, the viability, T/C [19] was 36.9% and the viability, T/C [20] was 0.41%. For the same compound, the viability, T/C [5] was 74.6%, the viability, T/C [6] was 125% and the viability, T/C [21] was 90.9%. It also gave a viability, T/C [22] of 53.1%, a viability, T/C [23] of 31.9% and a viability, T/C [24] of 0.39%. It also gave a viability, T/C [7] of 72.9%, a viability, T/C [8] of 85.9% and a viability, T/C [25] of 72.3%. It also gave a viability, T/C [26] of 57.5%, a viability, T/C [27] of 10.4% and a viability, T/C [28] of 0.24%. The viability, T/C [9] was 103%, the viability, T/C [10] was 95.8% and the viability, T/C [29] was 84%. For the same compound, the viability, T/C [30] was 53.1%, the viability, T/C [31] was 0.34% and the viability, T/C [32] was 0.27%. For the same compound, the viability, T/C [11] was 0.37%, the viability, T/C [12] was 0.4% and the viability, T/C [33] was 0.49%. The viability, T/C [34] was 0.51%, the viability, T/C [35] was 0.34% and the viability, T/C [36] was 0.2%.

Work on `O=C(c1cc(Cc2n[nH]c(=O)c3ccccc23)ccc1F)N1CCN(C(=O)C2CC2)CC1` + CNCc1ccccc1-c1csc(C(C)Nc2nc(C)nc3cc(OC)c(OC)cc23)c1 yielded an IC50 (second compound 0.0316 µM) greater than 10 µM, an IC50 (second compound 0.1 µM) greater than 10 µM and an IC50 (second compound 0.316 µM) greater than 10 µM. For the same compound, the IC50 (second compound 1 µM) was greater than 10 µM, the IC50 (second compound 3.16 µM) was greater than 10 µM and the IC50 (second compound 10 µM) was less than 0.0316 µM. For the same compound, the viability, T/C [1] was 95.6%, the viability, T/C [2] was 92.6% and the viability, T/C [13] was 93.1%. The viability, T/C [14] was 84.2%, the viability, T/C [15] was 80.3% and the viability, T/C [16] was 72%. It also gave a viability, T/C [3] of 87.1%, a viability, T/C [4] of 91.4% and a viability, T/C [17] of 92.1%. It also gave a viability, T/C [18] of 78.2%, a viability, T/C [19] of 81.9% and a viability, T/C [20] of 96%. For the same compound, the viability, T/C [5] was 84.6%, the viability, T/C [6] was 92.2% and the viability, T/C [21] was 76.7%. For the same compound, the viability, T/C [22] was 92.3%, the viability, T/C [23] was 89.8% and the viability, T/C [24] was 93.9%. The viability, T/C [7] was 70%, the viability, T/C [8] was 84.7% and the viability, T/C [25] was 85.5%. For the same compound, the viability, T/C [26] was 81.1%, the viability, T/C [27] was 78% and the viability, T/C [28] was 104%. The viability, T/C [9] was 95.7%, the viability, T/C [10] was 87.8% and the viability, T/C [29] was 98.2%. For the same compound, the viability, T/C [30] was 105%, the viability, T/C [31] was 92.3% and the viability, T/C [32] was 95.8%. It also gave a viability, T/C [11] of 0.39%, a viability, T/C [12] of 0.43% and a viability, T/C [33] of 0.37%. For the same compound, the viability, T/C [34] was 0.34%, the viability, T/C [35] was 0.39% and the viability, T/C [36] was 0.41%.
